Positions of bridges follow the written chain, without caps; N, C: chain ends. Residues, ends and D or L forms follow the SMILES beside them.

Consider four compounds from patent publication US4764591A, “Des-19-leucine, 20-glutamine, 21-threonine, 22-tyrosine-calcitonin” (Rorer Pharmaceutical Corporation, priority 1987, dated 1988).

Assay [1] relates to serum calcium concentration.
Protocol: Biological Assay of Calcitonin Analogs in Vivo
Rats were divided into four groups of seven animals, and each group was assigned at random to a dose of standard or test solution. Low and high doses were chosen from the linear portion of the dose-response curve. For the salmon calcitonin standard, the values were 0.7 and 2.1 ng. peptide/100 g. body weight (BW). This dose approximates 3 and 9 MU/100 g. BW. Peptides were given by subcutaneous injection (0.2 ml/100 g. BW) and blood was withdrawn 1 hour later for serum calcium determination. Sera are processed and analyzed within two hours of collection. Results were analyzed within two hours of collection.
For assay [2] the following is noted: literature values; cited from earlier work.

On to `CC(C)C[C@H](NC(=O)[C@H](CCCCN)NC(=O)CNC(=O)[C@H](CC(C)C)NC(=O)[C@@H](NC(=O)[C@@H]1CSSC[C@H](N)C(=O)N[C@@H](CO)C(=O)N[C@@H](CC(N)=O)C(=O)N[C@@H](CC(C)C)C(=O)N[C@@H](CO)C(=O)N[C@@H]([C@@H](C)O)C(=O)N1)C(C)C)C(=O)N[C@@H](CO)C(=O)N[C@@H](CCC(N)=O)C(=O)N[C@@H](CCC(=O)O)C(=O)N[C@@H](CC(C)C)C(=O)N[C@@H](Cc1c[nH]cn1)C(=O)N[C@@H](CCCCN)C(=O)N1CCC[C@H]1C(=O)N[C@@H](CCCNC(=N)N)C(=O)N[C@H](C(=O)N[C@@H](CC(N)=O)C(=O)N[C@H](C(=O)NCC(=O)N[C@@H](CO)C(=O)NCC(=O)N[C@H](C(=O)N1CCC[C@H]1C(N)=O)[C@@H](C)O)[C@@H](C)O)[C@@H](C)O` [des-Leu^19, Gln^20, Thr^21, Tyr^22 -SCT, des-19-leucine, 20-glutamine, 21-threonine, 22-tyrosine-salmon calcitonin] (H-CSNLSTCVLGKLSQELHKPRTNTGSGTP-NH2; disulfide 1-7), for which the biological potency in assay [1] (rat, in vivo, sc) is on record as 6250 IU/mg.
Consider “eel calcitonin [synthetic eel calcitonin]”, for which the hypocalcemic potency result in assay [2] was “around 4300 IU/mg”.
Consider `CC(C)C[C@H](NC(=O)[C@H](CCCCN)NC(=O)CNC(=O)[C@H](CC(C)C)NC(=O)[C@@H](NC(=O)[C@@H]1CSSC[C@H](N)C(=O)N[C@@H](CO)C(=O)N[C@@H](CC(N)=O)C(=O)N[C@@H](CC(C)C)C(=O)N[C@@H](CO)C(=O)N[C@@H]([C@@H](C)O)C(=O)N1)C(C)C)C(=O)N[C@@H](CO)C(=O)N[C@@H](CCC(N)=O)C(=O)N[C@@H](CCC(=O)O)C(=O)N[C@@H](CC(C)C)C(=O)N[C@@H](Cc1c[nH]cn1)C(=O)N[C@@H](CCCCN)C(=O)N[C@@H](CC(C)C)C(=O)N[C@@H](CCC(N)=O)C(=O)N[C@H](C(=O)N[C@@H](Cc1ccc(O)cc1)C(=O)N1CCC[C@H]1C(=O)N[C@@H](CCCNC(=N)N)C(=O)N[C@H](C(=O)N[C@@H](CC(N)=O)C(=O)N[C@H](C(=O)NCC(=O)N[C@@H](CO)C(=O)NCC(=O)N[C@H](C(=O)N1CCC[C@H]1C(N)=O)[C@@H](C)O)[C@@H](C)O)[C@@H](C)O)[C@@H](C)O` [standard salmon calcitonin, salmon calcitonin], for which the “potency content of the standard, independently determined” value in assay [1] (standard salmon calcitonin used in the assay, independently determined) is “greater than 4,000 IU/mg”.
For the compound “(1,7-alpha-L-amino-suberic acid) eel calcitonin”, the hypocalcemic potency result in assay [2] was “about 3400 IU/mg”.
